Source: US20050070510A1, “Substituted tetracycline compounds as synergistic antifungal agents” (Paratek Pharmaceuticals, Inc., priority 2001, published 2005)

Tested on: COS-1 cells
Experiment: In vitro mammalian cytotoxicity assay (Resazurin)

Row | Structure (SMILES) | In Vitro Cytotoxicity
1 | CN(C)[C@@H]1C(O)=C(C(N)=O)C(=O)[C@@]2(C#N)C(O)=C3C(=O)c4c(O)ccc(CNCc5cccn5C)c4C[C@@]3(N)C[C@@]12N [SH] | * (toxicities greater than >25 μg/ml are represented by *)
2 | CN(C)[C@@H]1C(O)=C(C(N)=O)C(=O)[C@@]2(C#N)C(O)=C3C(=O)c4c(ccc(Nc5nc(C6C7CC8CC(C7)CC6C8)cs5)c4O)[C@H](O)[C@@]3(N)[C@H](O)[C@@]12N (some centres unmarked) [DX] | ** (toxicities less than 25 μg/mL are represented by **)
3 | CN(C)C1C(O)=C(C(N)=O)C(=O)[C@@]2(C#N)C(O)=C3C(=O)c4c(O)ccc(-c5ccc(NC(=O)c6ccno6)cc5)c4C[C@@]3(N)C[C@@]12N (some centres unmarked) [RH] | * (toxicities greater than >25 μg/ml are represented by *)
4 | CN(C)[C@@H]1C(O)=C(C(N)=O)C(=O)[C@@]2(C#N)C(O)=C3C(=O)c4c(ccc(-c5cccc(C(N)=O)c5)c4O)[C@H](N)[C@@]3(N)[C@H](O)[C@@]12N [PP] | ** (toxicities less than 25 μg/mL are represented by **)
5 | CN(C)[C@@H]1C(O)=C(C(N)=O)C(=O)[C@@]2(C#N)C(O)=C3C(=O)c4c(O)ccc(-c5ccc(CNC6CC6)o5)c4C[C@@]3(N)C[C@@]12N [SX] | ** (toxicities less than 25 μg/mL are represented by **)
6 | COc1ccc(-c2cc(N(C)C)c3c(c2O)C(=O)C2=C(O)[C@]4(C#N)C(=O)C(C(N)=O)=C(O)[C@@H](N(C)C)[C@]4(N)C[C@]2(N)C3)cc1 [EA] | ** (toxicities less than 25 μg/mL are represented by **)
7 | CN(C)c1cc(NCC2CCCCC2)c(O)c2c1C[C@@]1(N)C[C@@]3(N)[C@H](N(C)C)C(O)=C(C(N)=O)C(=O)[C@@]3(C#N)C(O)=C1C2=O [MR] | ** (toxicities less than 25 μg/mL are represented by **)
8 | CN(C)[C@@H]1C(O)=C(C(N)=O)C(=O)[C@@]2(C#N)C(O)=C3C(=O)c4c(O)ccc(OC5=CC(c6cccc([N+](=O)O)c6)=CC5)c4C[C@@]3(N)C[C@@]12N [EC] | * (toxicities greater than >25 μg/ml are represented by *)
9 | CN(C)c1cc(CNC(=O)Oc2ccc(Br)cc2)c(O)c2c1C[C@@]1(N)C[C@@]3(N)[C@H](N(C)C)C(O)=C(C(N)=O)C(=O)[C@@]3(C#N)C(O)=C1C2=O [MV] | ** (toxicities less than 25 μg/mL are represented by **)
10 | CN(C)[C@@H]1C(O)=C(C(N)=O)C(=O)[C@@]2(C#N)C(O)=C3C(=O)c4c(ccc(-c5ccco5)c4O)[C@H](O)[C@@]3(N)[C@H](O)[C@@]12N [DY] | ** (toxicities less than 25 μg/mL are represented by **)
11 | CCCNCc1ccc(OC)c(-c2ccc(O)c3c2C[C@@]2(N)C[C@@]4(N)[C@H](N(C)C)C(O)=C(C(N)=O)C(=O)[C@@]4(C#N)C(O)=C2C3=O)c1 [LV] | * (toxicities greater than >25 μg/ml are represented by *)
12 | CN(C)c1cc(C#Cc2cccc(O)c2)c(O)c2c1C[C@@]1(N)C[C@@]3(N)[C@H](N(C)C)C(O)=C(C(N)=O)C(=O)[C@@]3(C#N)C(O)=C1C2=O [FG] | ** (toxicities less than 25 μg/mL are represented by **)
13 | CN(C)[C@@H]1C(O)=C(C(N)=O)C(=O)[C@@]2(C#N)C(O)=C3C(=O)c4c(ccc(NC=O)c4O)C(N)[C@@]3(N)[C@H](O)[C@@]12N (some centres unmarked) [DC] | ** (toxicities less than 25 μg/mL are represented by **)
14 | COC(=O)c1cc(NC(=O)c2ccno2)cc(-c2ccc(O)c3c2C[C@@]2(N)C[C@@]4(N)C(N(C)C)C(O)=C(C(N)=O)C(=O)[C@@]4(C#N)C(O)=C2C3=O)c1 (some centres unmarked) [RG] | * (toxicities greater than >25 μg/ml are represented by *)
15 | CCc1cc(C(C)=O)c(O)c2c1C[C@@]1(N)C[C@@]3(N)[C@H](N(C)C)C(O)=C(C(N)=O)C(=O)[C@@]3(C#N)C(O)=C1C2=O [RJ] | ** (toxicities less than 25 μg/mL are represented by **)
16 | CN(C)c1cc(NC(=O)OCC(C)(C)C)c(O)c2c1C[C@@]1(N)C[C@@]3(N)[C@H](N(C)C)C(O)=C(C(N)=O)C(=O)[C@@]3(C#N)C(O)=C1C2=O [DG] | ** (toxicities less than 25 μg/mL are represented by **)
17 | CC(=O)c1ccc(-c2ccc3c(c2O)C(=O)C2=C(O)[C@]4(C#N)C(=O)C(C(N)=O)=C(O)[C@@H](N(C)C)[C@]4(N)[C@@H](O)[C@]2(N)[C@H]3N)cc1 [QP] | ** (toxicities less than 25 μg/mL are represented by **)
18 | COc1ccc2c(c1)cc1c3c(c(O)ccc32)C(=O)C2=C(O)[C@]3(C#N)C(=O)C(C(N)=O)=C(O)[C@@H](N(C)C)[C@]3(N)C[C@@]21N [OL] | ** (toxicities less than 25 μg/mL are represented by **)
19 | CN(C)[C@@H]1C(O)=C(C(N)=O)C(=O)[C@@]2(C#N)C(O)=C3C(=O)c4c(O)ccc(-c5cc6ccccc6o5)c4C[C@@]3(N)C[C@@]12N [FW] | ** (toxicities less than 25 μg/mL are represented by **)
20 | CN(C)[C@@H]1C(O)=C(C(N)=O)C(=O)[C@@]2(C#N)C(O)=C3C(=O)c4c(ccc(-c5ccc(C=O)c6ccccc56)c4O)[C@H](N)[C@@]3(N)[C@H](O)[C@@]12N [PN] | ** (toxicities less than 25 μg/mL are represented by **)
21 | CN(C)[C@@H]1C(O)=C(C(N)=O)C(=O)[C@@]2(C#N)C(O)=C3C(=O)c4c(O)c(CNCC(C)(C)C)cc(CNCC(C)(C)C)c4C[C@@]3(N)C[C@@]12N [TG] | * (toxicities greater than >25 μg/ml are represented by *)

Row | Structure (SMILES) | In Vitro Cytotoxicity
22 | COc1ccc(CN(C)C)cc1-c1ccc(O)c2c1C[C@@]1(N)C[C@@]3(N)[C@H](N(C)C)C(O)=C(C(N)=O)C(=O)[C@@]3(C#N)C(O)=C1C2=O [IM] | * (toxicities greater than >25 μg/ml are represented by *)
23 | CN(C)[C@@H]1C(O)=C(C(N)=O)C(=O)[C@@]2(C#N)C(O)=C3C(=O)c4c(O)ccc(-c5ccc(CN6CCCC6)o5)c4C[C@@]3(N)C[C@@]12N [PJ] | * (toxicities greater than >25 μg/ml are represented by *)
24 | CCCCNC(=O)NCc1cc(N(C)C)c2c(c1O)C(=O)C1=C(O)[C@]3(C#N)C(=O)C(C(N)=O)=C(O)[C@@H](N(C)C)[C@]3(N)C[C@]1(N)C2 [MG] | * (toxicities greater than >25 μg/ml are represented by *)
25 | CN(C)[C@@H]1C(O)=C(C(N)=O)C(=O)[C@@]2(C#N)C(O)=C3C(=O)c4c(O)cccc4[C@H](N)[C@@]3(N)[C@H](OC(=O)C34CC5CC(CC(C5)C3)C4)[C@@]12N [CJ] | ** (toxicities less than 25 μg/mL are represented by **)
26 | CN(C)c1cc(-c2ccoc2)c(O)c2c1C[C@@]1(N)C[C@@]3(N)[C@H](N(C)C)C(O)=C(C(N)=O)C(=O)[C@@]3(C#N)C(O)=C1C2=O [SN] | ** (toxicities less than 25 μg/mL are represented by **)
27 | CN(C)CC(=O)NCc1ccc(-c2ccc(O)c3c2C[C@@]2(N)C[C@@]4(N)[C@H](N(C)C)C(O)=C(C(N)=O)C(=O)[C@@]4(C#N)C(O)=C2C3=O)cc1 [NY] | ** (toxicities less than 25 μg/mL are represented by **)
28 | COc1ccc(CNc2cc(N(C)C)c3c(c2O)C(=O)C2=C(O)[C@]4(C#N)C(=O)C(C(N)=O)=C(O)[C@@](N)(N(C)C)[C@]4(N)C[C@]2(N)C3)cc1O [TW] | * (toxicities greater than >25 μg/ml are represented by *)
29 | CCCCCCOC(=O)NCc1cc(N(C)C)c2c(c1O)C(=O)C1=C(O)[C@]3(C#N)C(=O)C(C(N)=O)=C(O)[C@@H](N(C)C)[C@]3(N)C[C@]1(N)C2 [MS] | ** (toxicities less than 25 μg/mL are represented by **)
30 | CN(C)[C@@H]1C(O)=C(C(N)=O)C(=O)[C@@]2(C#N)C(O)=C3C(=O)c4c(O)ccc(C=C5CCC5)c4C[C@@]3(N)C[C@@]12N [FS] | ** (toxicities less than 25 μg/mL are represented by **)
31 | CCOC(=O)C(Cc1ccccc1)NCc1ccc(OC)c(-c2ccc(O)c3c2C[C@@]2(N)C[C@@]4(N)[C@H](N(C)C)C(O)=C(C(N)=O)C(=O)[C@@]4(C#N)C(O)=C2C3=O)c1 (some centres unmarked) [OB] | ** (toxicities less than 25 μg/mL are represented by **)
32 | CC(=O)Nc1cccc(-c2ccc(O)c3c2C[C@@]2(N)C[C@@]4(N)[C@H](N(C)C)C(O)=C(C(N)=O)C(=O)[C@@]4(C#N)C(O)=C2C3=O)c1 [GT] | * (toxicities greater than >25 μg/ml are represented by *)
33 | COC(=O)C(CC(C)C)NCc1ccc(OC)c(-c2ccc(O)c3c2C[C@@]2(N)C[C@@]4(N)[C@H](N(C)C)C(O)=C(C(N)=O)C(=O)[C@@]4(C#N)C(O)=C2C3=O)c1 (some centres unmarked) [OA] | ** (toxicities less than 25 μg/mL are represented by **)
34 | CN(C)[C@@H]1C(O)=C(C(N)=O)C(=O)[C@@]2(C#N)C(O)=C3C(=O)c4c(O)ccc(-c5ccc(F)cc5)c4[C@H](N)[C@@]3(N)[C@H](O)[C@@]12N [CQ] | ** (toxicities less than 25 μg/mL are represented by **)
35 | CCc1cc(-c2ccc(N(C)C)cc2)c2c(c1O)C(=O)C1=C(O)[C@]3(C#N)C(=O)C(C(N)=O)=C(O)[C@@H](N(C)C)[C@]3(N)C[C@]1(N)C2 [PE] | ** (toxicities less than 25 μg/mL are represented by **)
36 | CCOc1ccc(-c2ccc(O)c3c2C[C@@]2(N)C[C@@]4(N)C(N(C)C)C(O)=C(C(N)=O)C(=O)[C@@]4(C#N)C(O)=C2C3=O)cc1CNC(=O)C(F)(F)F (some centres unmarked) [QQ] | * (toxicities greater than >25 μg/ml are represented by *)
37 | CCNC(=O)NCc1cc(N(C)C)c2c(c1O)C(=O)C1=C(O)[C@]3(C#N)C(=O)C(C(N)=O)=C(O)[C@@H](N(C)C)[C@]3(N)C[C@]1(N)C2 [MH] | * (toxicities greater than >25 μg/ml are represented by *)
38 | CN(C)[C@@H]1C(O)=C(C(N)=O)C(=O)[C@@]2(C#N)C(O)=C3C(=O)c4c(O)ccc(-c5ccc(C(C)(C)C)cc5)c4C[C@@]3(N)C[C@@]12N [QH] | ** (toxicities less than 25 μg/mL are represented by **)
39 | COC(=O)c1cc(N)cc(-c2ccc(O)c3c2C[C@@]2(N)C[C@@]4(N)[C@H](N(C)C)C(O)=C(C(N)=O)C(=O)[C@@]4(C#N)C(O)=C2C3=O)c1 [PT] | * (toxicities greater than >25 μg/ml are represented by *)
40 | CCCCCc1cc(N(C)C)c2c(c1O)C(=O)C1=C(O)[C@]3(C#N)C(=O)C(C(N)=O)=C(O)[C@@H](N(C)C)[C@]3(N)C[C@]1(N)C2 [KW] | ** (toxicities less than 25 μg/mL are represented by **)
41 | COc1ccc(CNCC(C)C)cc1-c1ccc(O)c2c1C[C@@]1(N)C[C@@]3(N)[C@H](N(C)C)C(O)=C(C(N)=O)C(=O)[C@@]3(C#N)C(O)=C1C2=O [LW] | * (toxicities greater than >25 μg/ml are represented by *)
